Test systems include HOP-62; NCI-H522; MOLT-4; SW-620; SR; SK-MEL-28; KM-20L2; HCC 2998; SNB-19; HCT-116; NCI-H226; UO-31; SNB-75; RPMI-8226; HL-60; CAKI-1; SK-MEL-2; NCI-H460.
Holding throughout (experiment): NCI tumour cell line growth inhibition, 48 h

Molecules are shown by their SMILES.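 In this assay, cells in 96-well plates receive the compound at five concentrations for 48 hours. Endpoints are linearly interpolated between the surrounding concentrations. GI50: concentration for 50% inhibition of growth.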 Activity calls are given as the source filed them. Cut-off read from the data, not from the text of the source: active = GI50 up to about 1.1 µM and inactive = higher.

With `Cc1occ2c1C(=O)CC1C2[C@@H](O)CC2C(C)(C)CCC[C@]12C` (stereo not given in full), the GI50 with HOP-62 was > 100 µM (inactive); in the assay with NCI-H522 it was 56.5 µM (inactive); with MOLT-4, 40 µM (inactive); in the assay with SW-620, > 100 µM (inactive); with SR it was 67.5 µM (inactive); with SK-MEL-28, > 100 µM (inactive). Moreover, the GI50 in the assay on KM-20L2, with HCC 2998, with SNB-19, with HCT-116, in the assay on NCI-H226 and in the assay with UO-31 was > 100 µM (inactive) each time. The results for the GI50 with SNB-75, in the assay with RPMI-8226 and with HL-60 were > 100 µM (inactive), 55.6 µM (inactive) and 44.7 µM (inactive), respectively.

For the compound `Cc1ccc(C2=Nc3ccccc3[S+]([O-])C(c3ccc4c(c3)OCO4)C2)cc1` (stereo not given), the GI50 in the assay on HOP-62 was 39.4 µM (inactive); in the assay with NCI-H522, 18.3 µM (inactive); in the assay with MOLT-4 it was 23.9 µM (inactive); in the assay on CAKI-1 it was 24.5 µM (inactive); in the assay on SK-MEL-2, 19 µM (inactive); in the assay on SW-620, 18.5 µM (inactive). Moreover, the GI50 in the assay on SR is 22.2 µM (inactive); with SK-MEL-28, 24.5 µM (inactive); in the assay on KM-20L2, 17.4 µM (inactive); in the assay with HCC 2998, > 10 µM (inactive); in the assay with SNB-19, 58.7 µM (inactive); in the assay on HCT-116, 16.6 µM (inactive). Further, the GI50 with NCI-H226 was 52.6 µM (inactive); with UO-31, 40.8 µM (inactive); in the assay with SNB-75, 88.3 µM (inactive); in the assay on NCI-H460, > 10 µM (inactive); with HL-60, 19.1 µM (inactive).

As for `Nc1nncc2c1c(Br)cn2C1OC(CO)C(O)C1O` (stereo not given), the GI50 is 22 µM (inactive) in the assay on HOP-62; 31.3 µM (inactive) in the assay with NCI-H522; 2.91 µM (inactive) in the assay with MOLT-4; 3.21 µM (inactive) with CAKI-1; > 40.8 µM (inactive) with SK-MEL-2; 5.69 µM (inactive) with SW-620. Also, the GI50 in the assay on SR is 2.99 µM (inactive); in the assay with SK-MEL-28 it was > 100 µM (inactive); in the assay with KM-20L2, 44 µM (inactive); with HCC 2998 it was 5.27 µM (inactive); in the assay on SNB-19, 64.3 µM (inactive); with HCT-116 it was 9.68 µM (inactive). In addition, the GI50 in the assay on NCI-H226 is > 100 µM (inactive); in the assay on UO-31, > 37.9 µM (inactive); with SNB-75 it was 13.7 µM (inactive); with NCI-H460 it was 28.8 µM (inactive); in the assay on RPMI-8226 it was 10.2 µM (inactive); in the assay on HL-60, 3.73 µM (inactive).

With `COc1cc2cccc(/N=C\c3ccccc3Cl)c2cc1OC`, the GI50 is > 100 µM (inactive) with HOP-62; > 100 µM (inactive) in the assay on NCI-H522; > 100 µM (inactive) in the assay with MOLT-4; > 100 µM (inactive) with CAKI-1; > 100 µM (inactive) in the assay with SK-MEL-2; 26.5 µM (inactive) in the assay on SW-620. Further, the GI50 in the assay with SR is 3.94 µM (inactive); in the assay with SK-MEL-28, > 100 µM (inactive); with KM-20L2 it was > 100 µM (inactive); in the assay with HCC 2998, > 100 µM (inactive); in the assay on SNB-19, > 100 µM (inactive); in the assay with HCT-116, 80.7 µM (inactive). Besides, the GI50 in the assay with NCI-H226 was > 100 µM (inactive); in the assay on UO-31, > 100 µM (inactive); with SNB-75 it was > 100 µM (inactive); in the assay on NCI-H460 it was > 100 µM (inactive); with RPMI-8226, 78.2 µM (inactive); in the assay on HL-60 it was 4.48 µM (inactive).

Consider `C=C=C(Sc1ccccc1)C(C)(C)O`, for which the GI50 was 0.399 µM (active) in the assay with NCI-H522; > 100 µM (inactive) in the assay on MOLT-4; > 100 µM (inactive) in the assay with SK-MEL-2; > 100 µM (inactive) in the assay on SW-620; > 100 µM (inactive) in the assay with SR; > 100 µM (inactive) in the assay with SK-MEL-28. Further, the GI50 in the assay on KM-20L2, in the assay with HCC 2998, in the assay with SNB-19, with HCT-116, in the assay with NCI-H226 and in the assay on UO-31 was > 100 µM (inactive) in each case. The GI50 is 38.6 µM (inactive) in the assay on SNB-75, > 100 µM (inactive) in the assay with NCI-H460, > 100 µM (inactive) in the assay with RPMI-8226 and > 100 µM (inactive) in the assay on HL-60.

`O=C(Cc1ccccc1)N/N=C(/c1nc2ccc([N+](=O)[O-])cc2nc1O)C(O)c1ccc(C(O)/C(=N/NC(=O)Cc2ccccc2)c2nc3ccc([N+](=O)[O-])cc3nc2O)cc1` (stereo not given): the GI50 was 44.6 µM (inactive) in the assay with HOP-62; 3.3 µM (inactive) in the assay on NCI-H522; 40.1 µM (inactive) with CAKI-1; 40 µM (inactive) in the assay on SK-MEL-2; 39.4 µM (inactive) with SW-620; > 10 µM (inactive) in the assay with SR. In addition, the GI50 is > 100 µM (inactive) in the assay on SK-MEL-28; 12.4 µM (inactive) with KM-20L2; 27 µM (inactive) in the assay with HCC 2998; > 100 µM (inactive) with SNB-19; 48.8 µM (inactive) in the assay with HCT-116; > 100 µM (inactive) in the assay on NCI-H226. The GI50 in the assay on SNB-75 is 31.3 µM (inactive); in the assay with RPMI-8226 it was 21 µM (inactive); in the assay on HL-60, 7.01 µM (inactive).

In the case of `Cc1ccc([N+](=O)[O-])cc1NC(=O)/C(CC(=O)c1sc(C(N)=S)nc1C)=N\N`, the GI50 is > 100 µM (inactive) with HOP-62; 20.9 µM (inactive) with NCI-H522; 68.5 µM (inactive) with MOLT-4; > 100 µM (inactive) in the assay with CAKI-1; > 100 µM (inactive) with SK-MEL-2; > 100 µM (inactive) with SW-620. Besides, the GI50 in the assay on SR was 88.9 µM (inactive); with SK-MEL-28, > 100 µM (inactive); in the assay on KM-20L2, > 100 µM (inactive); with HCC 2998, > 100 µM (inactive); with SNB-19, > 100 µM (inactive); in the assay on HCT-116 it was 71 µM (inactive). In addition, the GI50 in the assay with UO-31 was 48.1 µM (inactive); with SNB-75, > 100 µM (inactive); with NCI-H460, 35.1 µM (inactive); in the assay with RPMI-8226 it was > 100 µM (inactive); with HL-60 it was 43.9 µM (inactive).

As to `CCOC(=O)c1[nH]c2cc(OC)c(OC)cc2c1CN(C)C`, the GI50 with MOLT-4, with CAKI-1, in the assay on SK-MEL-2, with SW-620, in the assay on SR and with SK-MEL-28 was > 100 µM (inactive) each time. Besides, the GI50 with KM-20L2, in the assay with HCC 2998, with SNB-19, with HCT-116, in the assay with NCI-H226 and in the assay with UO-31 was > 100 µM (inactive) throughout. Moreover, the GI50 in the assay on SNB-75 was 67 µM (inactive); in the assay on NCI-H460, > 100 µM (inactive); in the assay with RPMI-8226 it was > 100 µM (inactive); with HL-60, > 100 µM (inactive).

As for `CC(=O)c1ccc(NC(=O)C(=O)Nn2c(S)nc3ccccc3c2=O)cc1`, the GI50 with HOP-62, in the assay with NCI-H522, in the assay with MOLT-4, in the assay on CAKI-1, in the assay on SK-MEL-2 and in the assay on SW-620 was > 100 µM (inactive) throughout. Also, the GI50 in the assay on SR, in the assay with SK-MEL-28, in the assay on KM-20L2, in the assay with HCC 2998, with SNB-19 and in the assay with HCT-116 was > 100 µM (inactive) each time. In addition, the GI50 in the assay with NCI-H226, in the assay with UO-31, with SNB-75, in the assay on NCI-H460, in the assay on RPMI-8226 and in the assay with HL-60 was > 100 µM (inactive) in each case.

As to `CC(=O)c1cccc(NC(=O)/C(=N\NC(C)(C)C)c2c(O)c3ccccc3oc2=O)c1`, the GI50 in the assay on HOP-62, in the assay on NCI-H522, with MOLT-4, in the assay on CAKI-1, in the assay with SK-MEL-2 and with SW-620 was > 100 µM (inactive) in each case. Also, the GI50 with SR, in the assay with SK-MEL-28, in the assay with KM-20L2, in the assay on HCC 2998, in the assay on SNB-19 and in the assay on HCT-116 was > 100 µM (inactive) throughout. Also, the GI50 was > 100 µM (inactive) in the assay on NCI-H226; > 100 µM (inactive) in the assay on UO-31; 39.2 µM (inactive) with SNB-75; > 100 µM (inactive) with NCI-H460; > 100 µM (inactive) with HL-60.

On to `N#CCc1ccc(C(C#N)/C(CCCC(=O)Nc2cccc([N+](=O)[O-])c2)=N\NC(=O)NN)cc1` (stereo not given), for which the GI50 in the assay on HOP-62, in the assay on NCI-H522, in the assay with MOLT-4, in the assay with CAKI-1, in the assay with SK-MEL-2 and in the assay with SW-620 was > 100 µM (inactive) in each case. For the same compound, the GI50 in the assay with SR, in the assay with SK-MEL-28, with KM-20L2, in the assay with HCC 2998, in the assay on SNB-19 and in the assay with HCT-116 was > 100 µM (inactive) throughout. Moreover, the GI50 with NCI-H226, with UO-31, in the assay with SNB-75, with NCI-H460, with RPMI-8226 and in the assay with HL-60 was > 100 µM (inactive) each time.

The values are drawn from ChEMBL document CHEMBL1201862, “PubChem BioAssay data set” (2004).
